Measured values: ChEMBL document CHEMBL1201862, “PubChem BioAssay data set” (2004)
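Exposure lasted 48 hours, with cells grown in 96-well plates and compounds tested at five concentrations. The concentration for 50% growth inhibition is given as GI50.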 The source made the active and inactive calls. No stated cut-off is given here; in the data, active = GI50 up to about 1.1 µM and inactive = higher.

What was measured:
Assay in all cases: NCI tumour cell line growth inhibition, 48 h
UACC-62 = system: UACC-62
IGROV-1 = system: IGROV-1
NCI-H460 = system: NCI-H460
UO-31 = system: UO-31
HOP-92 = system: HOP-92
OVCAR-8 = system: OVCAR-8
OVCAR-5 = system: OVCAR-5
NCI-H226 = system: NCI-H226
MCF7 = system: MCF7
786-0 = system: 786-0
MDA-N = system: MDA-N
RXF 393 = system: RXF 393
SNB-75 = system: SNB-75
SNB-19 = system: SNB-19
A549 = system: A549
U-251 = system: U-251
SW-620 = system: SW-620
HCC 2998 = system: HCC 2998
EKVX = system: EKVX
SK-OV-3 = system: SK-OV-3
DU-145 = system: DU-145
SK-MEL-5 = system: SK-MEL-5
SF-268 = system: SF-268
COLO 205 = system: COLO 205
HT-29 = system: HT-29
SK-MEL-2 = system: SK-MEL-2
NCI/ADR-RES = system: NCI/ADR-RES
SF-539 = system: SF-539
A498 = system: A498
T47D = system: T47D
NCI-H23 = system: NCI-H23
SF-295 = system: SF-295
HCT-116 = system: HCT-116
M14 = system: M14
SN12C = system: SN12C
KM12 = system: KM12
MDA-MB-231 = system: MDA-MB-231
CAKI-1 = system: CAKI-1
ACHN = system: ACHN
TK-10 = system: TK-10
OVCAR-3 = system: OVCAR-3
OVCAR-4 = system: OVCAR-4
LOX IMVI = system: LOX IMVI
UACC-257 = system: UACC-257
MOLT-4 = system: MOLT-4
HCT-15 = system: HCT-15
HOP-62 = system: HOP-62
HL-60 = system: HL-60
BT-549 = system: BT-549
SK-MEL-28 = system: SK-MEL-28
MDA-MB-435 = system: MDA-MB-435
Malme-3M = system: Malme-3M
RPMI-8226 = system: RPMI-8226
CCRF-CEM = system: CCRF-CEM
SR = system: SR
K562 = system: K562
NCI-H522 = system: NCI-H522
PC-3 = system: PC-3

Cc1sc(N/N=C2\C(=O)Nc3ccccc32)nc1-c1ccccc1 was tested, and the GI50 (UACC-62) was 13.7 µM (inactive), the GI50 (IGROV-1) was 9.48 µM (inactive) and the GI50 (NCI-H460) was 10.2 µM (inactive). The GI50 (UO-31) was 13.6 µM (inactive), the GI50 (HOP-92) was 23 µM (inactive) and the GI50 (OVCAR-8) was 17.5 µM (inactive). The GI50 (OVCAR-5) was 20.9 µM (inactive), the GI50 (NCI-H226) was 33.3 µM (inactive) and the GI50 (MCF7) was 15.3 µM (inactive). The GI50 (786-0) was 17.4 µM (inactive), the GI50 (MDA-N) was 19.4 µM (inactive) and the GI50 (RXF 393) was 15.8 µM (inactive). For the same compound, the GI50 (SNB-75) was 19.7 µM (inactive), the GI50 (SNB-19) was 16.6 µM (inactive) and the GI50 (A549) was 14.8 µM (inactive). For the same compound, the GI50 (U-251) was 11 µM (inactive), the GI50 (SW-620) was 23.6 µM (inactive) and the GI50 (HCC 2998) was 22.2 µM (inactive). The GI50 (EKVX) was 11.1 µM (inactive), the GI50 (SK-OV-3) was 14.9 µM (inactive) and the GI50 (DU-145) was 11.6 µM (inactive). The GI50 (SK-MEL-5) was 12.6 µM (inactive), the GI50 (SF-268) was 13.6 µM (inactive) and the GI50 (COLO 205) was 13.4 µM (inactive). For the same compound, the GI50 (HT-29) was 20.3 µM (inactive), the GI50 (SK-MEL-2) was 18.7 µM (inactive) and the GI50 (NCI/ADR-RES) was 17 µM (inactive). For the same compound, the GI50 (SF-539) was 18.8 µM (inactive), the GI50 (A498) was 15.1 µM (inactive) and the GI50 (T47D) was 13.6 µM (inactive). For the same compound, the GI50 (NCI-H23) was 16.6 µM (inactive), the GI50 (SF-295) was 11 µM (inactive) and the GI50 (HCT-116) was 12.4 µM (inactive). The GI50 (M14) was 16 µM (inactive), the GI50 (SN12C) was 12.1 µM (inactive) and the GI50 (KM12) was 13.6 µM (inactive). The GI50 (MDA-MB-231) was 14.5 µM (inactive), the GI50 (CAKI-1) was 17.4 µM (inactive) and the GI50 (ACHN) was 15.3 µM (inactive). The GI50 (TK-10) was 23.8 µM (inactive), the GI50 (OVCAR-3) was 12.6 µM (inactive) and the GI50 (OVCAR-4) was 13.9 µM (inactive). For the same compound, the GI50 (LOX IMVI) was 12.6 µM (inactive), the GI50 (UACC-257) was 21.4 µM (inactive) and the GI50 (MOLT-4) was 12.6 µM (inactive). For the same compound, the GI50 (HCT-15) was 9.38 µM, the GI50 (HOP-62) was 12 µM (inactive) and the GI50 (HL-60) was 4.23 µM (inactive). The GI50 (BT-549) was 16.3 µM (inactive), the GI50 (SK-MEL-28) was 17.3 µM (inactive) and the GI50 (MDA-MB-435) was 19.6 µM (inactive).
For CCOC(=O)/C(=C/Nc1c(C)n(C)n(-c2ccccc2)c1=O)C(C)=O, the GI50 (UACC-62) was > 100 µM (inactive), the GI50 (Malme-3M) was > 100 µM (inactive) and the GI50 (IGROV-1) was > 100 µM (inactive). The GI50 (UO-31) was > 100 µM (inactive), the GI50 (HOP-92) was > 100 µM (inactive) and the GI50 (OVCAR-8) was > 100 µM (inactive). The GI50 (RPMI-8226) was > 100 µM (inactive), the GI50 (OVCAR-5) was > 100 µM (inactive) and the GI50 (NCI-H226) was > 100 µM (inactive). For the same compound, the GI50 (MCF7) was > 100 µM (inactive), the GI50 (786-0) was > 100 µM (inactive) and the GI50 (MDA-N) was > 100 µM (inactive). For the same compound, the GI50 (RXF 393) was > 100 µM (inactive), the GI50 (SNB-75) was > 100 µM (inactive) and the GI50 (A549) was > 100 µM (inactive). For the same compound, the GI50 (U-251) was > 100 µM (inactive), the GI50 (SW-620) was > 100 µM (inactive) and the GI50 (CCRF-CEM) was > 100 µM (inactive). The GI50 (HCC 2998) was > 100 µM (inactive), the GI50 (EKVX) was > 100 µM (inactive) and the GI50 (SR) was > 100 µM (inactive). For the same compound, the GI50 (SK-OV-3) was > 100 µM (inactive), the GI50 (DU-145) was > 100 µM (inactive) and the GI50 (SK-MEL-5) was > 100 µM (inactive). The GI50 (K562) was > 100 µM (inactive), the GI50 (COLO 205) was > 100 µM (inactive) and the GI50 (SK-MEL-2) was > 100 µM (inactive). The GI50 (NCI/ADR-RES) was > 100 µM (inactive), the GI50 (SF-539) was > 100 µM (inactive) and the GI50 (A498) was > 100 µM (inactive). The GI50 (NCI-H23) was > 100 µM (inactive), the GI50 (SF-295) was > 100 µM (inactive) and the GI50 (NCI-H522) was > 100 µM (inactive). The GI50 (HCT-116) was > 100 µM (inactive), the GI50 (M14) was > 100 µM (inactive) and the GI50 (SN12C) was > 100 µM (inactive). The GI50 (PC-3) was > 100 µM (inactive), the GI50 (KM12) was > 100 µM (inactive) and the GI50 (MDA-MB-231) was > 100 µM (inactive). For the same compound, the GI50 (CAKI-1) was > 100 µM (inactive), the GI50 (ACHN) was > 100 µM (inactive) and the GI50 (TK-10) was > 100 µM (inactive). The GI50 (OVCAR-3) was > 100 µM (inactive), the GI50 (OVCAR-4) was > 100 µM (inactive) and the GI50 (LOX IMVI) was > 100 µM (inactive). For the same compound, the GI50 (UACC-257) was > 100 µM (inactive), the GI50 (MOLT-4) was > 100 µM (inactive) and the GI50 (HCT-15) was over 100 µM. For the same compound, the GI50 (HL-60) was > 100 µM (inactive), the GI50 (BT-549) was > 100 µM (inactive) and the GI50 (MDA-MB-435) was > 100 µM (inactive).
